In patent US6087336A, “Peptide derivatives useful in treating autoimmune diseases” (Zeneca Limited, priority 1996, dated 2000):

How the values were obtained:
BALB/C mice = assay: Test C: peptide stimulated DTH (delayed type hypersensitivity) in BALB/C mice; format: in vivo; settings: DTH to ovalbumin, 3-day osmotic mini-pumps
Protocol: Test C: Peptide stimulated DTH (delayed type hypersensitivity) in BALB/C mice. […] Balbic female mice (18-20g), 5 per group, were immunised sub-cutaneously on the flank with 0.1 ml of an emulsion of ovalbumin (Sigma) (2mg/ml in saline) mixed 1:1 (v/v) with complete Freunds adjurant (Sigma). Seven days later footpad thickness was detemined using a dual caliper micrometer followed by a challenge in one hind footpad with a 30 μl sub-plantar injection of 1% heat-aggregated ovalbumin protein in saline. Twenty-four hours after antigen challenge, footpads were measured and the DTH response calculated as the percentage increase in footpad thickness in the injected footpad compared to contralateral control. Inhibitors were adminstered by 3-day osmotic mini-pumps (Alzet) implanted 24 hours prior to antigen challenge at doses ranging from 10 mg/kg/day to 0.1 μg/kg/day. The degree of inhibition was calculated by substracting the value for swelling of inhibitor treated footpads from that of the vehicle dosed controls, dividing by the control value and multiplying by 100%.

[1] = format: physicochemical
Protocol: Typical procedures for measuring the level of degradation of a peptide of the present invention are as follows:
Prenaration of extruded polymer depot formulation of peptide
About 20 mg of peptide is accurately weighed and sufficient polymer (50/50% molar poly(D,L-lactic acid/glycolic acid) copolymer of approximate weight average molecular weight 20kD and approximate polydispersity of 1.7 as determined by size exclusion chromatography relative to polystyrene standards) added to produce an approximate 20% w/w mixture. This is dissolved in […] glacial acetic acid to produce an approximate 10% w/v solution. The solution is freeze dried and the resulting freeze dried product is stored under vacii, prior to use.
About 100 mg of freeze dried material is loaded into the barrel of a small laboratory extruder and the plunger pushed down to consolidate the sample. The extruder is heated to between 90 and 95° C. and held at this temperature for 10 minutes before the freeze dried material is extruded under presure to give a cylindrical extrudate of approximately 1 mm in diameter.
Analysis of peptide content of extruded polymer depot formulation of peptide
Two approximate 5 mm lengths of extruded polymer depot containing peptide are accurately weogjed amd eacj dosspved 1 ml of anhydride-free glacial acetic acid in separate 25 ml bolumertic flasks. After about 1.5 hours the volume of each is made up to 25 ml with distilled water, causing the polymer to precipitate. The solids are filtered off using a 0.5 μm Millex PTFE filter and the solutions, A, collected. […]
Each standard is filtered through a 5 μm Millex PTFE filter and an aliquot of filtrate, together with aliquots of the solutions A, analysed by HPLC using duplicate sample injections. The peptide content of the extruded polymer depot formulation of peptide is calculated from the concentration of peptide in solutions A, which is determined by comparing the area of the peptide peak in solutions A with the area of the peptide peak from the standard solutions.

[2] = format: physicochemical; settings: for aqueous stability at pH3: pH 3
Protocol: A typical procedure for measuring the stability of a peptide derivative of the present invention is as follows, in which, to minimize microbial contamination and degradation, all equipment that is used to prepare peptide solutions is sterilized in an autoclave and all material transfers carried out in a Class II laminar flow cabinet. Approximately 20 ml of Mcllvaine's citric acid-phosphate buffer solution at pH 3 or 7.6 containing 0.02% sodium azide is filtered into a 50 mL bottle using a sterile 0.22 μm filter unit and a 20 ml syringe. Approximately 1.2 mg of peptide is accurately weighed in a capped vial. Using a sterile pipette tip, sufficient buffer solution is added to the peptide in the vial to give a peptide concentration of 0.1 mg/ml. The vial is capped and shaken to dissolve the peptide. Using a sterile pipette tip, aliquots of approximately 1 ml of the peptide solution are transferred to 10 HPLC vials, which are then capped. 5 vials are stored at -18 and 37° C. The area of the peptide peak for the solution is determined by HPLC using appropriate standards initially and after storage at -18 and 37° C. for 1, 2, 3 and 4 weeks, using a fresh vial at each time point with duplicate sample injections. The percentage of peptide remaining after storage at 37° C. at each time point is determined from the ratio of the area of the peptide peak at each time point to the initial area. Preferred peptide derivatives of the present invention have greater than 90%, and preferably greater than 95%, of peptide remaining after storage at 37° C. at both pH 3 and 7.6.

| Substance | dose at which active in Test C (BALB/C mice) [mg/kg/day] | loss due to degradation on extrusion [1] | aqueous stability at pH3 [2] | aqueous stability at pH 7.6 [2] |
| --- | --- | --- | --- | --- |
| Phv-Arg-Ala-Ala-Ala-Val-IIb-Ala-Pip-NH2 [Example 5] | < 0.1 | minimal loss due to degradation on extrusion | good aqueous stability | good aqueous stability |
| Phv-Ala-Arg-Ala-IIb-Ala-Arg-Ala-Papa-NH2 [Example 23] | < 0.1 | minimal loss due to degradation on extrusion | good aqueous stability | good aqueous stability |
| Phv-Gap(Me)4 -Ala-Ala-Ala-Thr-IIb-Ala-Papa-NH2 [Example 16] | < 0.1 | minimal loss due to degradation on extrusion | good aqueous stability | good aqueous stability |
